Results on three substances are retold here after patent US8580919B2, “Polymer conjugates of GLP-1” (Nektar Therapeutics, priority 2005, dated 2013).

Ends that are not written are not given here.

Series [1] in a line: Lability of the conjugate on attempted further purification (Example 23). Type of series: physicochemical. The following applies: when attempting to further purify the conjugate. The source says:
The conjugate rapidly hydrolyzed to native GLP-1 and a GLP-1 derivative resulting from an intramolecular ring closure reaction due to reaction at the carbamate carbonyl by the imidazolyl nitrogen of the N-terminal histidine of GLP-1. The modified GLP-1 thereby released is shown below. Further purification was not pursued.

For series [2], the system named is diabetic db/db mice. Kind of series: In-vivo study of blood-glucose lowering effects, subcutaneous dose, diabetic db/db mice (Example 8). Set-up: species or system mouse. Particulars: for blood glucose-lowering effect: single SC dose, FIG. 13. As to the method: Male diabetic mice (BKS.Cg-+Lepr db/+Lepr db/01aHsd) were purchased from Harlan Laboratories, Ltd. (Jerusalem, Israel). The 8-9 week old animals (30-40 gm) were placed in mouse cages (two animals per cage), and allowed at least 48 hours of acclimatization before the start of the study.
The study was divided into two phases: a feasibility phase and an evaluation phase.
In carrying out the feasibility phase, several groups of mice were used wherein four mice were used in each group. Data on the baseline glucose levels were gathered for each mouse for 2-3 days prior to drug dosing. This was performed to identify any outliers in the group of animals. On the day of treatment (Day 0) each animal was weighed. A time 0 day blood sample (5 to 10 μL) was collected from the tail vein. The glucose level (mg/dL) was measured using a glucose analyzer. Each animal was then dosed subcutaneously (SC) below the skin on the back. […] The animals were then allowed to return into their cages. Blood samples of 5 to 10 μL (<0.5% of 2 mL blood volume for a 35 g mouse) were removed through a needle prick/capillary tube at the following time points: −3, −2, −1, 0, 0.04, 0.16, 0.33, 1.0, 1.16 days. Each collected blood sample was tested for its glucose level. At the end of the study, the animals were humanely euthanized by carbon-dioxide asphyxiation.
In carrying out the evaluation phase, eight mice were used in each group. Data on the baseline glucose levels were gathered for each mouse three days prior to drug dosing. On the day of treatment (Day 0) each animal was weighed. A time 0 day blood sample (5 to 10 μL) was collected from the tail vein. The glucose level (mg/dL) was measured using a glucose analyzer. Each animal was then dosed subcutaneously (SC) below the skin on the back. […] The animals were then allowed to return into their cages. Blood samples of 5 to 10 μL (<0.5% of 2 mL blood volume for a 35 g mouse) were removed through a needle prick/capillary tube at the following time points: −3, −2, −1, 0, 0.04, 0.16, 0.33, 0.5, 1, 2, 3, 6 days. Each collected blood sample was for its glucose level. […]

“N-terminal GLP-1 conjugate prepared by reaction with an mPEG-SBC reagent: counterpart N-terminal GLP-1 conjugate prepared by reaction with an mPEG-SBC reagent”: in series [1], the “stability of the conjugate” value is “extremely labile”.
As for “G2PEG2Fmoc40K-Lys-GLP-1: G2PEG2Fmoc40k-NHS covalently and releasably attached to a lysine position of GLP-1 (HAEGTFTSDVSSYLEGQAAKEFIAWLVKGRG; also: releasable G2PEG2Fmoc 40 kDa PEG on a lysine, position not given here; UniProt P01275 98-128, looked up)”, in series [2] (SC 420 μg), the “PD effect of 40 kilodalton PEG conjugate compared to 20 kilodalton PEG conjugate” value was “small but extended PD effect”. For the same substance, the blood glucose-lowering effect result in series [2] is “confirmed”.
Take “G2PEG2Fmoc20K-Lys-GLP-1: G2PEG2Fmoc20k-NHS covalently and releasably attached to a lysine position of GLP-1 (HAEGTFTSDVSSYLEGQAAKEFIAWLVKGRG; also: releasable G2PEG2Fmoc 20 kDa PEG on a lysine, position not given here; UniProt P01275 98-128, looked up)”: in series [2], the blood glucose-lowering effect entry is given as “confirmed”.
